Results as given in patent publication US9695155B2, “Herbicidal substituted pyrimidinyloxy benzene compounds” (E. I. DU PONT DE NEMOURS AND COMPANY, priority 2013, dated 2017).

Key:
wild radish = test: Test D postemergence; type: in vivo, Raphanus raphanistrum
Text: (§1) Seeds of plant species selected from bluegrass (annual bluegrass, Poa annua), blackgrass (Alopecurus myosuroides), canarygrass (littleseed canarygrass, Phalaris minor), chickweed (common chickweed, Stellaria media), galium (catchweed bedstraw, Galium aparine), bromegrass, downy (downy bromegrass, Bromus tectorum), field poppy (Papaver rhoeas), field violet (Viola arvensis), green foxtail (Setaria viridis), deadnettle (henbit deadnettle, Lamium amplexicaule), Italian ryegrass (Lolium multiflorum), kochia (Kochia scoparia), lambsquarters (Chenopodium album), oilseed rape (Brassica napus), pigweed (Amaranthus retroflexus), chamomile (scentless chamomile, Matricaria inodora), Russian thistle (Salsola kali), speedwell (bird's-eye speedwell, Veronica persica), spring barley (Hordeum vulgare), spring wheat (Triticum aestivum), wild buckwheat (Polygonum convolvulus), wild mustard (Sinapis arvensis), wild oat (Avena fatua), wild radish (Raphanus raphanistrum), windgrass (Apera spica-venti), winter barley (Hordeum vulgare), and winter wheat (Triticum aestivum) were planted into a silt loam soil and treated preemergence with test chemicals formulated in a non-phytotoxic solvent mixture which included a surfactant.
(§2) At the same time, these species were planted in pots containing Redi-Earth® planting medium (Scotts Company, 14111 Scottslawn Road, Marysville, Ohio 43041) comprising spaghnum peat moss, vermiculite, wetting agent and starter nutrients and treated with postemergence applications of the test chemicals formulated in the same manner. Plants ranged in height from 2 to 18 cm (1- to 4-leaf stage). Treated plants and controls were maintained in a controlled growth environment for 7 to 21 days after which time all species were compared to controls and visually evaluated. Plant response ratings, summarized in Table D, are based on a scale of 0 to 100 where 0 is no effect and 100 is complete control. A dash (-) response means no test result.

field poppy = test: Test D postemergence; type: in vivo, Papaver rhoeas
Text: as §1, §2

canarygrass = test: Test D preemergence; type: in vivo, Phalaris minor
Text: as §1, §2

speedwell = test: Test D postemergence; type: in vivo, Veronica persica
Text: as §1, §2

bluegrass = test: Test D preemergence; type: in vivo, Poa annua
Text: as §1, §2

kochia = test: Test D preemergence; type: in vivo, Kochia scoparia
Text: as §1, §2

green foxtail = test: Test D preemergence; type: in vivo, Setaria viridis
Text: as §1, §2

[1] = Raphanus raphanistrum, post-emergence, 31 g ai/ha, scale 0 to 100 (0 no effect, 100 complete control), read-out: Plant response rating, Radish, Wild
[2] = Raphanus raphanistrum, post-emergence, 62 g ai/ha, scale 0 to 100 (0 no effect, 100 complete control), read-out: Plant response rating, Radish, Wild
[3] = Raphanus raphanistrum, post-emergence, 125 g ai/ha, scale 0 to 100 (0 no effect, 100 complete control), read-out: Plant response rating, Radish, Wild
[4] = Papaver rhoeas, post-emergence, 31 g ai/ha, scale 0 to 100 (0 no effect, 100 complete control), read-out: Plant response rating, Field Poppy
[5] = Papaver rhoeas, post-emergence, 62 g ai/ha, scale 0 to 100 (0 no effect, 100 complete control), read-out: Plant response rating, Field Poppy
[6] = Papaver rhoeas, post-emergence, 125 g ai/ha, scale 0 to 100 (0 no effect, 100 complete control), read-out: Plant response rating, Field Poppy
[7] = Phalaris minor, pre-emergence, 31 g ai/ha, scale 0-100, read-out: Plant response rating, Canarygrass
[8] = Phalaris minor, pre-emergence, 62 g ai/ha, scale 0-100, read-out: Plant response rating, Canarygrass
[9] = Phalaris minor, pre-emergence, 125 g ai/ha, scale 0-100, read-out: Plant response rating, Canarygrass
[10] = Veronica persica, post-emergence, 31 g ai/ha, scale 0 to 100 (0 no effect, 100 complete control), read-out: Plant response rating, Speedwell
[11] = Veronica persica, post-emergence, 62 g ai/ha, scale 0 to 100 (0 no effect, 100 complete control), read-out: Plant response rating, Speedwell
[12] = Veronica persica, post-emergence, 125 g ai/ha, scale 0 to 100 (0 no effect, 100 complete control), read-out: Plant response rating, Speedwell
[13] = Poa annua, pre-emergence, 31 g ai/ha, scale 0-100, read-out: Plant response rating, Bluegrass
[14] = Poa annua, pre-emergence, 62 g ai/ha, scale 0-100, read-out: Plant response rating, Bluegrass
[15] = Poa annua, pre-emergence, 125 g ai/ha, scale 0-100, read-out: Plant response rating, Bluegrass
[16] = Bassia scoparia, pre-emergence, 31 g ai/ha, scale 0-100, read-out: Plant response rating, Kochia
[17] = Bassia scoparia, pre-emergence, 62 g ai/ha, scale 0-100, read-out: Plant response rating, Kochia
[18] = Bassia scoparia, pre-emergence, 125 g ai/ha, scale 0-100, read-out: Plant response rating, Kochia
[19] = Setaria viridis, pre-emergence, 31 g ai/ha, scale 0-100, read-out: Plant response rating, Foxtail, Green
[20] = Setaria viridis, pre-emergence, 62 g ai/ha, scale 0-100, read-out: Plant response rating, Foxtail, Green
[21] = Setaria viridis, pre-emergence, 125 g ai/ha, scale 0-100, read-out: Plant response rating, Foxtail, Green
[22] = 31 g ai/ha, scale 0 to 100 (0 no effect, 100 complete control)
[23] = 62 g ai/ha, scale 0 to 100 (0 no effect, 100 complete control)
[24] = 125 g ai/ha, scale 0 to 100 (0 no effect, 100 complete control)
[25] = 16 g ai/ha, scale 0 (no effect) to 100 (complete control)

## N#Cc1cccc(Oc2ncc(Cl)cn2)c1-n1cc(Br)cn1 [Compound 52, 2-(4-bromo-1H-pyrazol-1-yl)-3-[(5-chloro-2-pyrimidinyl)oxy]benzonitrile]
Wild radish; [1]
  pest or weed control at 31 g/ha: 65%
Wild radish; [2]
  pest or weed control at 62 g/ha: 70%
Wild radish; [3]
  pest or weed control at 125 g/ha: 80%
Wild radish; Raphanus raphanistrum, post-emergence, 250 g ai/ha, scale 0 to 100 (0 no effect, 100 complete control), read-out: Plant response rating, Radish, Wild
  pest or weed control at 250 g/ha: 90%
Field poppy; [4]
  pest or weed control at 31 g/ha: 60%
Field poppy; [5]
  pest or weed control at 62 g/ha: 75%
Field poppy; [6]
  pest or weed control at 125 g/ha: 80%
Field poppy; Papaver rhoeas, post-emergence, 250 g ai/ha, scale 0 to 100 (0 no effect, 100 complete control), read-out: Plant response rating, Field Poppy
  pest or weed control at 250 g/ha: 100%
canarygrass; [7]
  pest or weed control at 31 g/ha: 0%
canarygrass; [8]
  pest or weed control at 62 g/ha: 0%
canarygrass; [9]
  pest or weed control at 125 g/ha: 35%
canarygrass; Phalaris minor, pre-emergence, 250 g ai/ha, scale 0-100, read-out: Plant response rating, Canarygrass
  pest or weed control at 250 g/ha: 55%
speedwell; [10]
  pest or weed control at 31 g/ha: 70%
speedwell; [11]
  pest or weed control at 62 g/ha: 95%
speedwell; [12]
  pest or weed control at 125 g/ha: 100%
speedwell; Veronica persica, post-emergence, 250 g ai/ha, scale 0 to 100 (0 no effect, 100 complete control), read-out: Plant response rating, Speedwell
  pest or weed control at 250 g/ha: 100%
bluegrass; [13]
  pest or weed control at 31 g/ha: 0%
bluegrass; [14]
  pest or weed control at 62 g/ha: 0%
bluegrass; [15]
  pest or weed control at 125 g/ha: 10%
bluegrass; Poa annua, pre-emergence, 250 g ai/ha, scale 0-100, read-out: Plant response rating, Bluegrass
  pest or weed control at 250 g/ha: 60%
kochia; [16]
  pest or weed control at 31 g/ha: 95%
kochia; [17]
  pest or weed control at 62 g/ha: 95%
kochia; [18]
  pest or weed control at 125 g/ha: 95%
kochia; Bassia scoparia, pre-emergence, 250 g ai/ha, scale 0-100, read-out: Plant response rating, Kochia
  pest or weed control at 250 g/ha: 95%
Green foxtail; [19]
  pest or weed control at 31 g/ha: 20%
Green foxtail; [20]
  pest or weed control at 62 g/ha: 60%
Green foxtail; [21]
  pest or weed control at 125 g/ha: 100%
Green foxtail; Setaria viridis, pre-emergence, 250 g ai/ha, scale 0-100, read-out: Plant response rating, Foxtail, Green
  pest or weed control at 250 g/ha: 100%

## Fc1cccc(Oc2ncc(Cl)cn2)c1-n1cc(C(F)F)nn1 [Compound 141, 5-chloro-2-[2-[4-(difluoromethyl)-1H-1,2,3-triazol-1-yl]-3-fluorophenoxy]pyrimidine]
Wild radish; Raphanus raphanistrum, post-emergence, 16 g ai/ha, scale 0-100, read-out: Plant response rating, Radish, Wild
  pest or weed control at 16 g/ha: 90%
Wild radish; [1]
  pest or weed control at 31 g/ha: 95%
Wild radish; [2]
  pest or weed control at 62 g/ha: 100%
Wild radish; [3]
  pest or weed control at 125 g/ha: 100%
Field poppy; Papaver rhoeas, post-emergence, 16 g ai/ha, scale 0-100, read-out: Plant response rating, Field Poppy
  pest or weed control at 16 g/ha: 40%
Field poppy; [4]
  pest or weed control at 31 g/ha: 95%
Field poppy; [5]
  pest or weed control at 62 g/ha: 90%
Field poppy; [6]
  pest or weed control at 125 g/ha: 85%
canarygrass; Phalaris minor, pre-emergence, 16 g ai/ha, scale 0 (no effect) to 100 (complete control), read-out: Plant response rating, Canarygrass
  pest or weed control at 16 g/ha: 35%
canarygrass; [7]
  pest or weed control at 31 g/ha: 75%
canarygrass; [8]
  pest or weed control at 62 g/ha: 100%
canarygrass; [9]
  pest or weed control at 125 g/ha: 100%
speedwell; Veronica persica, post-emergence, 16 g ai/ha, scale 0-100, read-out: Plant response rating, Speedwell
  pest or weed control at 16 g/ha: 100%
speedwell; [10]
  pest or weed control at 31 g/ha: 100%
speedwell; [11]
  pest or weed control at 62 g/ha: 100%
speedwell; [12]
  pest or weed control at 125 g/ha: 100%
bluegrass; Poa annua, pre-emergence, 16 g ai/ha, scale 0 (no effect) to 100 (complete control), read-out: Plant response rating, Bluegrass
  pest or weed control at 16 g/ha: 15%
bluegrass; [13]
  pest or weed control at 31 g/ha: 35%
bluegrass; [14]
  pest or weed control at 62 g/ha: 90%
bluegrass; [15]
  pest or weed control at 125 g/ha: 90%
kochia; Bassia scoparia, pre-emergence, 16 g ai/ha, scale 0 (no effect) to 100 (complete control), read-out: Plant response rating, Kochia
  pest or weed control at 16 g/ha: 85%
kochia; [16]
  pest or weed control at 31 g/ha: 100%
kochia; [17]
  pest or weed control at 62 g/ha: 100%
kochia; [18]
  pest or weed control at 125 g/ha: 100%
Green foxtail; Setaria viridis, pre-emergence, 16 g ai/ha, scale 0 (no effect) to 100 (complete control), read-out: Plant response rating, Foxtail, Green
  pest or weed control at 16 g/ha: 10%
Green foxtail; [19]
  pest or weed control at 31 g/ha: 100%
Green foxtail; [20]
  pest or weed control at 62 g/ha: 100%
Green foxtail; [21]
  pest or weed control at 125 g/ha: 100%

## FCc1cccc(Oc2ncc(Cl)cn2)c1-n1cc(I)cn1 [Compound 245]
Wild radish; 16 g ai/ha, scale 0-100
  Plant response rating, Radish, Wild: 35
Wild radish; [22]
  Plant response rating, Radish, Wild: 45
Wild radish; [23]
  Plant response rating, Radish, Wild: 55
Wild radish; [24]
  Plant response rating, Radish, Wild: 85
Field poppy; 16 g ai/ha, scale 0-100
  Plant response rating, Field Poppy: 90
Field poppy; [22]
  Plant response rating, Field Poppy: 95
Field poppy; [23]
  Plant response rating, Field Poppy: 80
Field poppy; [24]
  Plant response rating, Field Poppy: 100
canarygrass; [25]
  Plant response rating, Canarygrass: 0
canarygrass; 31 g ai/ha, scale 0-100
  Plant response rating, Canarygrass: 0
canarygrass; 62 g ai/ha, scale 0-100
  Plant response rating, Canarygrass: 15
canarygrass; 125 g ai/ha, scale 0-100
  Plant response rating, Canarygrass: 35
speedwell; 16 g ai/ha, scale 0-100
  Plant response rating, Speedwell: 100
speedwell; [22]
  Plant response rating, Speedwell: 100
speedwell; [23]
  Plant response rating, Speedwell: 100
speedwell; [24]
  Plant response rating, Speedwell: 100
bluegrass; [25]
  Plant response rating, Bluegrass: 0
bluegrass; 31 g ai/ha, scale 0-100
  Plant response rating, Bluegrass: 0
bluegrass; 62 g ai/ha, scale 0-100
  Plant response rating, Bluegrass: 0
bluegrass; 125 g ai/ha, scale 0-100
  Plant response rating, Bluegrass: 20
kochia; [25]
  Plant response rating, Kochia: 0
kochia; 31 g ai/ha, scale 0-100
  Plant response rating, Kochia: 0
kochia; 62 g ai/ha, scale 0-100
  Plant response rating, Kochia: 75
kochia; 125 g ai/ha, scale 0-100
  Plant response rating, Kochia: 75
Green foxtail; [25]
  Plant response rating, Foxtail, Green: 0
Green foxtail; 31 g ai/ha, scale 0-100
  Plant response rating, Foxtail, Green: 0
Green foxtail; 62 g ai/ha, scale 0-100
  Plant response rating, Foxtail, Green: 0
Green foxtail; 125 g ai/ha, scale 0-100
  Plant response rating, Foxtail, Green: 35
